# In patent US20100041089A1, “IMPROVED METHOD FOR DETECTING CHEMICAL […]” (priority 2006, published 2010):
# Tested on: yeast genes (expressed mRNA)
# Assay: DNA chip measurement of expressed mRNA of yeast genes after culture with a toxic chemical substance
# Type: cell-based, Saccharomyces cerevisiae S288C
# Outline: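 Fluorescence ratio, treated over untreated, read by chip scanner; ratio of two or more counted significant. Cells: S288C yeast, YPD, 25° C, chemical added at log phase for 2 h at growth-inhibiting, sublethal level. Cy3/Cy5-labeled cDNA from oligo-dT-purified mRNA.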
structure (smiles),measurement,setting,value
"S=C([S-])NCCNC(=S)[S-].[Zn+2] [(11), Zinc N,N′-ethylenebis(dithiocarbamate)]",The level of expressed mRNA in the presence of chemical substance/The level of expressed mRNA in the absence of chemical substance,"yeast gene YAL053W, cultured two hours with substance",2.3
same,The level of expressed mRNA in the presence of chemical substance/The level of expressed mRNA in the absence of chemical substance,"yeast gene YAR028W, cultured two hours with substance",0.9
same,The level of expressed mRNA in the presence of chemical substance/The level of expressed mRNA in the absence of chemical substance,"yeast gene YBL048W, cultured two hours with substance",2.0
same,The level of expressed mRNA in the presence of chemical substance/The level of expressed mRNA in the absence of chemical substance,"yeast gene YBL107C, cultured two hours with substance",2.9
same,The level of expressed mRNA in the presence of chemical substance/The level of expressed mRNA in the absence of chemical substance,yeast gene YBR008C (detoxification protein gene),9.4
same,The level of expressed mRNA in the presence of chemical substance/The level of expressed mRNA in the absence of chemical substance,yeast gene YBR072W (stress protein genes),6.3
same,The level of expressed mRNA in the presence of chemical substance/The level of expressed mRNA in the absence of chemical substance,"yeast gene YBR096W, cultured two hours with the chemical substance",1.2
same,The level of expressed mRNA in the presence of chemical substance/The level of expressed mRNA in the absence of chemical substance,"yeast gene YBR269C, cultured two hours with substance",1.2
same,The level of expressed mRNA in the presence of chemical substance/The level of expressed mRNA in the absence of chemical substance,"yeast gene YCR102C, cultured two hours with substance",13.5
same,The level of expressed mRNA in the presence of chemical substance/The level of expressed mRNA in the absence of chemical substance,"yeast gene YDL023C, cultured two hours with the chemical substance",3.5
same,The level of expressed mRNA in the presence of chemical substance/The level of expressed mRNA in the absence of chemical substance,"yeast gene YDL072C, cultured two hours with substance",1.4
same,The level of expressed mRNA in the presence of chemical substance/The level of expressed mRNA in the absence of chemical substance,"yeast gene YDL169C, cultured two hours with substance",1.2
same,The level of expressed mRNA in the presence of chemical substance/The level of expressed mRNA in the absence of chemical substance,"yeast gene YDL204W, cultured two hours with substance",3.2
same,The level of expressed mRNA in the presence of chemical substance/The level of expressed mRNA in the absence of chemical substance,"yeast gene YDL218W, cultured two hours with substance",5.7
same,The level of expressed mRNA in the presence of chemical substance/The level of expressed mRNA in the absence of chemical substance,"yeast gene YDL222C, cultured two hours with substance",2.6
same,The level of expressed mRNA in the presence of chemical substance/The level of expressed mRNA in the absence of chemical substance,"yeast gene YDR031W, cultured two hours with substance",1.2
same,The level of expressed mRNA in the presence of chemical substance/The level of expressed mRNA in the absence of chemical substance,"yeast gene YDR070C, cultured two hours with substance",4.1
same,The level of expressed mRNA in the presence of chemical substance/The level of expressed mRNA in the absence of chemical substance,yeast gene YDR077W (stress protein genes),6.8
same,The level of expressed mRNA in the presence of chemical substance/The level of expressed mRNA in the absence of chemical substance,"yeast gene YDR330W, cultured two hours with substance",0.9
same,The level of expressed mRNA in the presence of chemical substance/The level of expressed mRNA in the absence of chemical substance,"yeast gene YDR391C, cultured two hours with substance",1.9
same,The level of expressed mRNA in the presence of chemical substance/The level of expressed mRNA in the absence of chemical substance,"yeast gene YDR411C, cultured two hours with substance",1.3
same,The level of expressed mRNA in the presence of chemical substance/The level of expressed mRNA in the absence of chemical substance,"yeast gene YDR486C, cultured two hours with substance",1.4
same,The level of expressed mRNA in the presence of chemical substance/The level of expressed mRNA in the absence of chemical substance,"yeast gene YDR511W, cultured two hours with substance",1.2
same,The level of expressed mRNA in the presence of chemical substance/The level of expressed mRNA in the absence of chemical substance,"yeast gene YDR533C, cultured two hours with substance",7.7
same,The level of expressed mRNA in the presence of chemical substance/The level of expressed mRNA in the absence of chemical substance,"yeast gene YDR545W, cultured two hours with substance",0.7
same,The level of expressed mRNA in the presence of chemical substance/The level of expressed mRNA in the absence of chemical substance,"yeast gene YEL001C, cultured two hours with substance",1.2
same,The level of expressed mRNA in the presence of chemical substance/The level of expressed mRNA in the absence of chemical substance,"yeast gene YEL033W, cultured two hours with the chemical substance",1.2
same,The level of expressed mRNA in the presence of chemical substance/The level of expressed mRNA in the absence of chemical substance,"yeast gene YER004W, cultured two hours with substance",2.2
same,The level of expressed mRNA in the presence of chemical substance/The level of expressed mRNA in the absence of chemical substance,"yeast gene YER035W, cultured two hours with substance",1.4
same,The level of expressed mRNA in the presence of chemical substance/The level of expressed mRNA in the absence of chemical substance,"yeast gene YER038C, cultured two hours with substance",0.6
same,The level of expressed mRNA in the presence of chemical substance/The level of expressed mRNA in the absence of chemical substance,"yeast gene YER079W, cultured two hours with substance",2.1
same,The level of expressed mRNA in the presence of chemical substance/The level of expressed mRNA in the absence of chemical substance,"yeast gene YER106W, cultured two hours with substance",1.0
same,The level of expressed mRNA in the presence of chemical substance/The level of expressed mRNA in the absence of chemical substance,"yeast gene YER158C, cultured two hours with substance",2.3
same,The level of expressed mRNA in the presence of chemical substance/The level of expressed mRNA in the absence of chemical substance,"yeast gene YER163C, cultured two hours with substance",1.6
same,The level of expressed mRNA in the presence of chemical substance/The level of expressed mRNA in the absence of chemical substance,"yeast gene YER175C, cultured two hours with substance",1.1
same,The level of expressed mRNA in the presence of chemical substance/The level of expressed mRNA in the absence of chemical substance,"yeast gene YFL006W, cultured two hours with substance",1.2
same,The level of expressed mRNA in the presence of chemical substance/The level of expressed mRNA in the absence of chemical substance,"yeast gene YFL010C, cultured two hours with substance",1.4
same,The level of expressed mRNA in the presence of chemical substance/The level of expressed mRNA in the absence of chemical substance,"yeast gene YFL024C, cultured two hours with substance",0.6
same,The level of expressed mRNA in the presence of chemical substance/The level of expressed mRNA in the absence of chemical substance,"yeast gene YFL032W, cultured two hours with substance",1.1
same,The level of expressed mRNA in the presence of chemical substance/The level of expressed mRNA in the absence of chemical substance,"yeast gene YFR015C, cultured for two hours with substance",3.9
same,The level of expressed mRNA in the presence of chemical substance/The level of expressed mRNA in the absence of chemical substance,"yeast gene YGL037C, cultured two hours with substance",3.9
same,The level of expressed mRNA in the presence of chemical substance/The level of expressed mRNA in the absence of chemical substance,"yeast gene YGL047W, cultured two hours with substance",1.9
same,The level of expressed mRNA in the presence of chemical substance/The level of expressed mRNA in the absence of chemical substance,"yeast gene YGL053W, cultured two hours with substance",1.3
same,The level of expressed mRNA in the presence of chemical substance/The level of expressed mRNA in the absence of chemical substance,"yeast gene YGL121C, cultured two hours with substance",6.1
same,The level of expressed mRNA in the presence of chemical substance/The level of expressed mRNA in the absence of chemical substance,"yeast gene YGL136C, cultured two hours with substance",1.4
same,The level of expressed mRNA in the presence of chemical substance/The level of expressed mRNA in the absence of chemical substance,"yeast gene YGR101W, cultured two hours with substance",2.0
same,The level of expressed mRNA in the presence of chemical substance/The level of expressed mRNA in the absence of chemical substance,"yeast gene YGR110W, cultured two hours with substance",0.5
same,The level of expressed mRNA in the presence of chemical substance/The level of expressed mRNA in the absence of chemical substance,"yeast gene YGR130C, cultured two hours with substance",0.8
same,The level of expressed mRNA in the presence of chemical substance/The level of expressed mRNA in the absence of chemical substance,"yeast gene YGR146C, cultured two hours with substance",0.9
same,The level of expressed mRNA in the presence of chemical substance/The level of expressed mRNA in the absence of chemical substance,"yeast gene YGR154C, cultured two hours with substance",1.5
same,The level of expressed mRNA in the presence of chemical substance/The level of expressed mRNA in the absence of chemical substance,"yeast gene YGR221C, cultured two hours with substance",0.5
same,The level of expressed mRNA in the presence of chemical substance/The level of expressed mRNA in the absence of chemical substance,"yeast gene YHR029C, cultured two hours with substance",3.8
same,The level of expressed mRNA in the presence of chemical substance/The level of expressed mRNA in the absence of chemical substance,"yeast gene YHR138C, cultured two hours with substance",1.6
same,The level of expressed mRNA in the presence of chemical substance/The level of expressed mRNA in the absence of chemical substance,"yeast gene YHR199C, cultured two hours with substance",1.9
same,The level of expressed mRNA in the presence of chemical substance/The level of expressed mRNA in the absence of chemical substance,"yeast gene YHR209W, cultured two hours with substance",3.3
same,The level of expressed mRNA in the presence of chemical substance/The level of expressed mRNA in the absence of chemical substance,"yeast gene YIL023C, cultured two hours with substance",1.1
same,The level of expressed mRNA in the presence of chemical substance/The level of expressed mRNA in the absence of chemical substance,"yeast gene YIL024C, cultured two hours with substance",0.6
same,The level of expressed mRNA in the presence of chemical substance/The level of expressed mRNA in the absence of chemical substance,"yeast gene YIL041W, cultured two hours with substance",1.4
same,The level of expressed mRNA in the presence of chemical substance/The level of expressed mRNA in the absence of chemical substance,"yeast gene YIL087C, cultured two hours with substance",2.8
same,The level of expressed mRNA in the presence of chemical substance/The level of expressed mRNA in the absence of chemical substance,"yeast gene YIL117C, cultured two hours with substance",1.8
same,The level of expressed mRNA in the presence of chemical substance/The level of expressed mRNA in the absence of chemical substance,"yeast gene YIL136W, mitochondria-located protein gene",4.8
same,The level of expressed mRNA in the presence of chemical substance/The level of expressed mRNA in the absence of chemical substance,yeast gene YIR024C,6.3
same,The level of expressed mRNA in the presence of chemical substance/The level of expressed mRNA in the absence of chemical substance,"yeast gene YJL020C, cultured two hours with substance",0.6
same,The level of expressed mRNA in the presence of chemical substance/The level of expressed mRNA in the absence of chemical substance,"yeast gene YJL057C, cultured two hours with substance",2.0
same,The level of expressed mRNA in the presence of chemical substance/The level of expressed mRNA in the absence of chemical substance,"yeast gene YJL066C, cultured two hours with substance",0.8
same,The level of expressed mRNA in the presence of chemical substance/The level of expressed mRNA in the absence of chemical substance,"yeast gene YJL082W, cultured two hours with substance",1.0
same,The level of expressed mRNA in the presence of chemical substance/The level of expressed mRNA in the absence of chemical substance,"yeast gene YJL108C, cultured two hours with substance",1.0
same,The level of expressed mRNA in the presence of chemical substance/The level of expressed mRNA in the absence of chemical substance,"yeast gene YJL144W, cultured two hours with substance",3.0
same,The level of expressed mRNA in the presence of chemical substance/The level of expressed mRNA in the absence of chemical substance,"yeast gene YJL149W, cultured two hours with substance",1.5
same,The level of expressed mRNA in the presence of chemical substance/The level of expressed mRNA in the absence of chemical substance,"yeast gene YJL151C, cultured two hours with substance",1.0
same,The level of expressed mRNA in the presence of chemical substance/The level of expressed mRNA in the absence of chemical substance,"yeast gene YJL152W, cultured two hours with substance",1.0
same,The level of expressed mRNA in the presence of chemical substance/The level of expressed mRNA in the absence of chemical substance,"yeast gene YJL161W, cultured two hours with substance",3.7
same,The level of expressed mRNA in the presence of chemical substance/The level of expressed mRNA in the absence of chemical substance,"yeast gene YJL171C, cultured two hours with substance",2.2
same,The level of expressed mRNA in the presence of chemical substance/The level of expressed mRNA in the absence of chemical substance,"yeast gene YJL186W, cultured two hours with substance",0.6
same,The level of expressed mRNA in the presence of chemical substance/The level of expressed mRNA in the absence of chemical substance,"yeast gene YJR008W, cultured two hours with substance",1.4
same,The level of expressed mRNA in the presence of chemical substance/The level of expressed mRNA in the absence of chemical substance,"yeast gene YJR054W, cultured two hours with substance",0.7
same,The level of expressed mRNA in the presence of chemical substance/The level of expressed mRNA in the absence of chemical substance,"yeast gene YJR085C, cultured two hours with substance",2.9
same,The level of expressed mRNA in the presence of chemical substance/The level of expressed mRNA in the absence of chemical substance,"yeast gene YKL034W, cultured two hours with substance",1.2
same,The level of expressed mRNA in the presence of chemical substance/The level of expressed mRNA in the absence of chemical substance,yeast gene YKL070W,10.4
same,The level of expressed mRNA in the presence of chemical substance/The level of expressed mRNA in the absence of chemical substance,"yeast gene YKL071W, cultured two hours with substance",40.3
